Article doi:10.1101/2024.05.02.592243v1, “Vestibular Modulation by Stimulant Derivatives in a Pentameric Ligand-Gated Ion Channel” (biorxiv, 2024)

Experiments:
sTeLIC [1] = biological target: T1, sTeLIC (endosymbiont of Tevnia jerichonana, UniProt G2FID1); assay: two-electrode voltage clamp, Xenopus laevis oocytes; type: cell-based; parameters: gene TevJSym_bc00020; homopentamer (C5); oocyte rows: sTeLIC cDNA in vector pMT3, Xenopus laevis oocytes; conditions: pH 8.5 (~EC20), 30-s coapplication, -40 mV
T1 sequence (G2FID1 1-320): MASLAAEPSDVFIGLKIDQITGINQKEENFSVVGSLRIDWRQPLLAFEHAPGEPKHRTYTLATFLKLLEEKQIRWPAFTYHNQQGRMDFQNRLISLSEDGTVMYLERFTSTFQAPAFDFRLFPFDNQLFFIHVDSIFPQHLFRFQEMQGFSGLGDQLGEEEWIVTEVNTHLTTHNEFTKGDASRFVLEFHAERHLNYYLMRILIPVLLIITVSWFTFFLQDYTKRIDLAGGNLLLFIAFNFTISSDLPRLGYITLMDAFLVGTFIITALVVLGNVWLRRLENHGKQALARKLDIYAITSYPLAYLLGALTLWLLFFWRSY

sTeLIC [2] = biological target: T1, sTeLIC; assay: X-ray co-crystal structure, […] A, anomalous Br signal; type: binding; parameters: gene TevJSym_bc00020; homopentamer (C5); oocyte rows: sTeLIC cDNA in vector pMT3, Xenopus laevis oocytes; structures: N-terminal MBP fusion (pET20b, E. coli C43(DE3)), MBP cut off with thrombin; conditions: pH 8.0, DDM/NDG detergent, 3 mM ligand; vestibular site, open state
sTeLIC [3] = biological target: T1, sTeLIC; assay: cryo-EM structure; type: binding; parameters: gene TevJSym_bc00020; homopentamer (C5); oocyte rows: sTeLIC cDNA in vector pMT3, Xenopus laevis oocytes; structures: N-terminal MBP fusion (pET20b, E. coli C43(DE3)), MBP cut off with thrombin; conditions: pH 7.5, saposin nanodisc, 2 mM FFC-8; density in vestibular site, open state

With C[C@H](N)Cc1ccc(Br)cc1 [BrAmp] the “% modulation” value (sTeLIC [1]; positive allosteric modulator, vestibular site, up to 200 uM) was “BrAmp showed positive modulatory effects similar to BrCA” and the “X-ray co-crystal structure, 3.2 A, anomalous Br signal” value (sTeLIC [2]) was “Anomalous signal from the bromine atom of BrAmp allowed definitive placement in the vestibular pocket”.
C[N+](C)(C)CCOP(=O)([O-])OCCC(F)(F)C(F)(F)C(F)(F)C(F)(F)C(F)(F)C(F)(F)F [FFC-8] was tested, and the “% modulation” value (sTeLIC [1]; positive modulator, micromolar concentrations) was “micromolar concentrations of FFC-8 potentiated sTeLIC currents in oocytes” and the cryo-EM structure (sTeLIC [3]) was “This density could reasonably accommodate fluorinated fos-choline-8 (FFC-8)”.
